Test results reported in PMC12598866, “A Comparative Study of Virucidal and Virustatic Multivalent Entry Inhibitors” (The Journal of Physical Chemistry. B, 2025).

How the values were obtained:
[1] = test system: HSV-2; assay: HSV-2 inhibition assay (plaque reduction on Vero cells, pretreatment); format: cell-based, herpes simplex virus type 2; details: Human alphaherpesvirus 2, Vero, pretreatment condition
[2] = test system: HSV-2; assay: HSV-2 virucidal assay; format: cell-based, herpes simplex virus type 2; details: for inhibition mechanism against HSV-2 (in words): virucidal tests
[3] = test system: H3N2; assay: Influenza inhibition assay (ICC on MDCK cells, pretreatment); format: cell-based; details: Influenza A virus
[4] = test system: HSV-1; assay: HSV-1 inhibition assay (plaque reduction on Vero cells); format: cell-based, herpes simplex virus type 1; details: Human alphaherpesvirus 1, dose–response
Experimental: The inhibitory effect of compounds on HSV-1 was evaluated by plaque reduction assay. Vero cells were plated 24 h before the experiment in 24-well plates at a density of 10^5 cells/well. Serial dilutions of compounds in DMEM medium (2% FBS, 1% P/S) were prepared, followed by the addition of aliquots of HSV-1 such that the final titer of the virus is […] (with MOI = 0.0005). Compounds/virus mixtures were incubated at 37 °C for 1 h and added to the cells (250 μL/well). Followed by incubation at 37 °C for 1 h, the viral inoculum was removed. The cells were overlaid with DMEM medium containing 1.2% methylcellulose, 2% FBS, and 1% P/S. After 3 days of incubation at 37 °C, 5% CO2, the cells were fixed and stained with 0.1% crystal violet in 20% ethanol, and plaques were counted. Each group of experiments in the inhibition assay was performed in triplicate. The concentration producing a 50% reduction in plaque formation was determined using the Prism 10 software (GraphPad Software, USA) by comparing compound-treated and untreated cells. Infectivity was calculated as the number of plaques in compound-treated cells/number of plaques in untreated cells × 100%.

[5] = CMC assay (conductivity method); format: physicochemical; details: in water
Experimental: The CMC of antiviral compounds was measured by the conductivity method. Antiviral compounds were diluted into water at different concentrations, and the conductivity (μS/cm) was measured at each concentration with a conductivity meter (Mettler Toledo, Switzerland). The CMC was identified as the point on the conductivity-concentration plot where the slope changed.

[6] = Cytotoxicity assay on Vero cells (MTS); format: cell-based; details: African green monkey
Experimental: Cytotoxicity assay was performed on the Vero cell line with the MTS assay. The cells were plated for 24 h in DMEM medium containing 10% FBS and 1% penicillin/streptomycin with a seeding density of 2 × 10^4 per well in a 96-well plate. […] Then, the cells were washed with PBS twice, followed by the addition of 20 μL MTS reagents together with 80 μL DMEM medium. They were then incubated at 37 °C for 4 h. The cell viability was checked by absorbance at 490 nm with a plate reader.

[7] = biological target: glycoprotein D (gD) of HSV; assay: Isothermal titration calorimetry with glycoprotein D; format: binding; details: ITC, 25°C
Experimental: Isothermal titration calorimetry (ITC) experiments were conducted using ITC200 instruments (GE Healthcare, USA) equipped with a 200 μL sample cell and a 40 μL syringe. Thirteen injections were applied. The first data point was excluded. BSA protein and viral protein concentrations in the cell were approximately 50 μM and 1 mg/mL, respectively, and ligand concentrations in the syringe were roughly 2 mM. They were centrifuged at 2000g for 2 min to remove bubbles. The titration was performed at 25 or 37 °C, with data analyzed using MicroCal PEAQ ITC software. Baseline correction was applied, and Nitpic/Sedphat was used for automated integration to ensure precise binding parameter determination.

[8] = test system: H3N2; assay: microbe, parasite or virus in culture; format: cell-based; details: Influenza A virus, posttreatment condition, MDCK cells
[9] = Partition coefficient octanol/water (UV-vis); format: physicochemical
Experimental: UV–vis spectroscopy was employed first to determine the correct dilution of all compounds. The seven compounds in this study were B3C11SO4, B3C11SO3, B3C6SO3, B3C6SO4, C4C11SO4, C4C11SO3, and C4C3SO3. The protocol is the same for all the compounds: in the beginning, all compounds were dissolved in water at a concentration of 1 mg/mL. The solution was put into a quartz cuvette and then into the UV–vis spectrometer, where the absorbance from wavelengths 600 to 190 nm was investigated. All of the samples presented a peak in absorbance around 200 nm. The samples were diluted further until the absorbance peak reached values near 0.90.
A biphasic solution composed of 1.5 mL of a water solution of antiviral +1.5 mL of octanol was thoroughly mixed for 60 min. After the mixing, the two phases were separated by centrifugation for 1 min using a benchtop centrifuge at 5000 rpm. The water phase saturated in octanol and the octanol phase saturated with water were extracted and characterized by UV–vis spectrometry.
The partition coefficient (log P) was then calculated using formula : logP=log(Absorbanceofoctanolphase/Absorbanceofwaterphase) 1

[10] = Cytotoxicity assay for MDCK (MTT); format: cell-based; details: dog, MDCK cells
Experimental: MTT assay was used to evaluate the cytotoxicity on MDCK cells. 10^4 cells per well were seeded in a 96-well plate 1 day before the assay. A dose range of each drug (from 4.11 μM to 1000 μM) was added to the cells in serum-free medium for MDCK cells. The antivirals were incubated on the cells for 24 h at 37 °C. After incubation, the cells were washed, and MTT reagent (Promega) was added to the cells for 4 h at 37 °C according to the manufacturer’s instructions. The cells were then washed, and 50 μL of DMSO was added to free the reagent. Subsequently, the absorbance was read at 579 nm. Percentages of viability were calculated by comparing the absorbance in treated wells and untreated conditions.

[11] = test system: H1N1N09; assay: Influenza inhibition assay (ICC on MDCK cells); format: cell-based, Influenza A/Netherlands/602/2009 (H1N1); details: Influenza A virus, dose–response
[12] = test system: H1N1 clinical; assay: Influenza inhibition assay (ICC on MDCK cells); format: cell-based; details: Influenza A virus, dose–response
[13] = test system: NO production in RAW 264.7 cells; assay: NO production in LPS-stimulated macrophages; format: cell-based; details: Mus musculus, RAW264.7; RAW 264.7 pretreated 2 h with MEIs, then LPS 1 μg/mL for 24 h
Experimental: To evaluate the anti-inflammatory potential of MEIs, we investigated their ability to reduce the level of NO production in macrophages. RAW 264.7 cells were pretreated with the different concentrations of MEIs for 2 h, followed by stimulation with lipopolysaccharide (LPS) (1 μg/mL) for 24 h to induce inflammation. […] However, cotreatment with MEIs led to a reduction in NO levels, confirming their anti-inflammatory effect.

[14] = dose–response, read-out: IC50 H3N2
[15] = pretreatment condition, read-out: pretreatment IC50, H3N2

Row | Structure (SMILES) | IC50 [1] | Virucidal/Virustatic, HSV-2 ([2]; concentration 300 uM) | Virucidal/Virustatic, HSV-2 ([2]; concentration 500 uM) | inhibition mechanism against HSV-2 (in words) [2] | Virucidal activity, HSV-2 ([2]; virucidal titration at 90–99% viral inhibition concentration, Vero cells) | IC50 [3, 14] | IC50 [3, 15] | IC50 [4] | CMC [5] | CC50 at 48 h [6] | Kd [7] | IC50 [8] | logP [9] | CC50 at 24 h [10] | IC50 [11] | IC50 [12] | IC50 [13] | Virucidal/Virustatic, HSV-2 ([2]; concentration 126.3 uM) | Virucidal/Virustatic, HSV-2 ([2]; concentration 237.16 uM) | Virucidal/Virustatic, HSV-2 ([2]; concentration 304 uM)
1 | O=S(=O)(O)CCCCCCCCCCCSCc1cc(CSCCCCCCCCCCCS(=O)(=O)O)cc(CSCCCCCCCCCCCS(=O)(=O)O)c1 [B3C11SO3] | 88.5 ± 7.6 µM | Virustatic | Virustatic | virustatic | S | 49.5 ± 8.7 µM | 49.5 ± 8.7 µM | 139 ± 4.6 µM | 497 ± 20.9 µM | > 546 µM | 23.2 µM | 24.8 ± 1.2 µM | -2.43 | > 415 µM | 35.2 ± 4.7 µM | 4.2 ± 0.36 µM |  |  |  | 
2 | O=S(=O)(O)OCCCCCCCCCCCSCc1cc(CSCCCCCCCCCCCOS(=O)(=O)O)cc(CSCCCCCCCCCCCOS(=O)(=O)O)c1 [B3C11SO4] | 43 ± 8.3 µM |  |  | virucidal |  | 0.6 ± 0.12 µM | 0.6 ± 0.12 µM | 43 ± 1.14 µM | 556 ± 35.1 µM | 313 ± 28.7 µM | 28.2 µM | 8.6 µM | -2.2 | 12.2 ± 0.94 µM | 0.9 ± 0.05 µM | 0.7 ± 0.04 µM | 152.8 ± 1.27 µM |  |  | 
3 | O=S(=O)(O)CCCCCCCCCCCSCc1cc2c(cc1CSCCCCCCCCCCCS(=O)(=O)O)OCCOCCOc1cc(CSCCCCCCCCCCCS(=O)(=O)O)c(CSCCCCCCCCCCCS(=O)(=O)O)cc1OCCOCCO2 [C4C11SO3] | 9.8 ± 1.5 µM |  |  | virucidal |  | 6.4 ± 1.03 µM | 40.9 ± 1.19 µM | 118 ± 10.4 µM | 237 ± 17.1 µM | > 358 µM | 83.5 µM | 52.6 ± 0.5 µM | -2.25 | 202.3 ± 0.76 µM | 15.8 ± 3.1 µM | 10.4 ± 3.34 µM | 173.8 ± 1.52 µM | Virucidal | Virucidal | Virucidal
4 | O=S(=O)(O)OCCCCCCCCCCCSCc1cc2c(cc1CSCCCCCCCCCCCOS(=O)(=O)O)OCCOCCOc1cc(CSCCCCCCCCCCCOS(=O)(=O)O)c(CSCCCCCCCCCCCOS(=O)(=O)O)cc1OCCOCCO2 [C4C11SO4] | 18.5 ± 5.2 µM |  |  |  |  | 40.9 ± 1.19 µM | 6.4 ± 1.03 µM | 22.5 ± 4.2 µM | 1003 ± 24.6 µM | > 657 µM | 141 µM | 18.3 ± 0.75 µM | -1.76 | > 194 µM | 80.9 ± 13.7 µM | > 202 µM | 66.1 ± 1.23 µM |  |  | 
